Columns and labels:
[1] = system: Triticum aestivum; assay: Herbicidal activity against Triticum aestivum (wheat) at 5000 g/ha after 2 weeks; type: ADME, organism-based; details: in vivo, 336 h
[2] = system: Abutilon theophrasti; assay: Herbicidal activity against Abutilon theophrasti (velvetleaf) at 250 g/ha after 2 weeks; type: functional
[3] = system: Veronica persica; assay: Herbicidal activity against Veronica persica at 5000 g/ha after 2 weeks; type: functional
[4] = system: Xanthium strumarium; assay: Herbicidal activity against Xanthium strumarium (cocklebur) 250 g/ha after 2 weeks; type: functional
[5] = system: Glycine max; assay: Herbicidal activity against Glycine max (soybean) at 5000 g/ha after 2 weeks; type: organism-based; details: in vivo, 336 h
[6] = system: Galium spurium; assay: Herbicidal activity against Galium spurium var. echinospermon (Wally.) Hayek at 250 g/ha after 2 weeks; type: functional
[7] = system: Abutilon theophrasti; assay: Herbicidal activity against Abutilon theophrasti (velvetleaf) at 5000 g/ha after 2 weeks; type: functional
[8] = system: Veronica persica; assay: Herbicidal activity against Veronica persica at 250 g/ha after 2 weeks; type: functional
[9] = system: Echinochloa crus-galli; assay: Herbicidal activity against Echinochloa crus-galli (barnyard grass) at 500 g/ha after 2 weeks; type: functional
[10] = system: Abutilon theophrasti; assay: Herbicidal activity against Abutilon theophrasti (velvetleaf) at 500 g/ha after 2 weeks; type: functional
[11] = system: Avena fatua; assay: Herbicidal activity against Avena fatua at 500 g/ha after 2 weeks; type: functional
[12] = system: Glycine max; assay: Herbicidal activity against Glycine max (soybean) at 250 g/ha after 2 weeks; type: organism-based; details: in vivo, 336 h
[13] = system: Galium spurium; assay: Herbicidal activity against Galium spurium var. echinospermon (Wally.) Hayek at 5000 g/ha after 2 weeks; type: functional
[14] = system: Xanthium strumarium; assay: Herbicidal activity against Xanthium strumarium (cocklebur) 5000 g/ha after 2 weeks; type: functional
[15] = system: Echinochloa crus-galli; assay: Herbicidal activity against Echinochloa crus-galli (barnyard grass) at 250 g/ha after 2 weeks; type: functional
[16] = system: Glycine max; assay: Herbicidal activity against Glycine max (soybean) at 500 g/ha after 2 weeks; type: organism-based; details: in vivo, 336 h
[17] = system: Triticum aestivum; assay: Herbicidal activity against Triticum aestivum (wheat) at 250 g/ha after 2 weeks; type: organism-based; details: in vivo, 336 h
[18] = system: Galium spurium; assay: Herbicidal activity against Galium spurium var. echinospermon (Wally.) Hayek at 500 g/ha after 2 weeks; type: functional
[19] = system: Avena fatua; assay: Herbicidal activity against Avena fatua at 5000 g/ha after 2 weeks; type: functional
[20] = system: Avena fatua; assay: Herbicidal activity against Avena fatua at 250 g/ha after 2 weeks; type: functional
[21] = system: Triticum aestivum; assay: Herbicidal activity against Triticum aestivum (wheat) at 500 g/ha after 2 weeks; type: ADME, organism-based; details: in vivo, 336 h
[22] = system: Veronica persica; assay: Herbicidal activity against Veronica persica at 500 g/ha after 2 weeks; type: functional
[23] = system: Xanthium strumarium; assay: Herbicidal activity against Xanthium strumarium (cocklebur) 500 g/ha after 2 weeks; type: functional
[24] = system: Echinochloa crus-galli; assay: Herbicidal activity against Echinochloa crus-galli (barnyard grass) at 5000 g/ha after 2 weeks; type: functional

Measured: Activity

Cc1ccc(F)cc1NC(=O)c1nc(C)c(C)nc1C(=O)NCC(C)C
30%: [1] | [2] | [13] | [24]
10%: [11] | [17] | [21]
< 10%: [5] | [12] | [16]
50%: [19]
95%: [3] | [7] | [8] | [14] | [22] | [23]
70%: [10]
<10%: all other assays above

Cc1ccc(F)cc1NC(=O)c1nc(C)c(C)nc1C(=O)NC(C)C
95%: [3] | [22]
< 10%: [5] | [12] | [16] | [17]
<10%: [6] | [15] | [18] | [20]
50%: [2] | [7] | [24]
10%: [4] | [21]
30%: [1] | [9] | [11] | [19]
70%: all other assays above

CCCNC(=O)c1nc(C)c(C)nc1C(=O)Nc1cc(Cl)ccc1C
50%: [13] | [23] | [24]
< 10%: [5] | [12] | [16] | [17] | [21]
95%: [3] | [7] | [8]
70%: [22]
30%: [1] | [14]
<10%: all other assays above

CCNC(=O)c1nc(C)c(C)nc1C(=O)Nc1cc(Cl)ccc1C
30%: [7] | [13]
95%: [3] | [14]
10%: [1] | [23]
70%: [22]
< 10%: [5] | [12] | [16] | [17] | [21]
50%: [24]
<10%: all other assays above

CC[C@@H](C)NC(=O)c1nc(C)c(C)nc1C(=O)Nc1cc(Cl)ccc1C
30%: [1] | [19]
< 10%: [5] | [12] | [16] | [17] | [21]
95%: [3] | [7] | [13] | [14] | [22] | [24]
70%: [8]
<10%: all other assays above

Cc1ccc(Cl)cc1NC(=O)c1nc(C)c(C)nc1C(=O)NC(C)C
70%: [24]
50%: [4] | [8] | [19] | [23]
95%: [3] | [7] | [13] | [14] | [22]
30%: [1]
< 10%: [5] | [12] | [16] | [17] | [21]
<10%: all other assays above

CC[C@@H](C)NC(=O)c1nc(C)c(C)nc1C(=O)Nc1cc(F)ccc1C
<10%: [4] | [6] | [11] | [15] | [20]
< 10%: [5] | [12] | [16] | [17] | [21]
70%: [13] | [14]
50%: [1] | [23]
95%: [3] | [7] | [10] | [22]
30%: all other assays above

Cc1ccc(Cl)cc1NC(=O)c1nc(C)c(C)nc1C(=O)NCC(C)C
30%: [8] | [9]
95%: [3] | [7] | [13] | [14] | [19] | [22] | [24]
< 10%: [5] | [12] | [16] | [17] | [21]
70%: [1]
<10%: all other assays above

From ChEMBL document CHEMBL3046846, “Synthesis of N-Alkyl-2, 3-dimethyl-5-[N-(5-halo-2-methylphenyl)carbamoyl]-6-pyrazinecarboxamides and Their Herbicidal Activity” (J Pestic Sci, 1997)
